Measurements published in patent US20240043450A1, “NEW COMPOUND” (JANSSEN PHARMACEUTICA NV, priority 2020, published 2024).
One block for each molecule: values may come before it.

Assays:
[1] = target: T1, NLRP3 (Homo sapiens, UniProt Q96P20); test: PBMC assay: IL-1β levels in supernatant of LPS-stimulated human PBMCs (MSD); assay type: cell-based; conditions: 30 min compound pre-incubation, 100 ng/ml LPS for 6 hrs, IL-1β in supernatant, read-out: IL-1B IC50
T1 construct: human peripheral blood mononuclear cells (PBMCs) were isolated from blood; endogenous in cells; host or cells: primary human PBMCs from healthy donors
Description: The activity of a compound according to the present invention can be assessed by in vitro methods.
Peripheral venous blood was collected from healthy individuals and human peripheral blood mononuclear cells (PBMCs) were isolated from blood by Ficoll-Histopaque (Sigma-Aldrich, A0561) density gradient centrifugation. After isolation, PBMCs were stored in liquid nitrogen for later use. Upon thawing, PBMC cell viability was determined in growth medium (RPMI media supplemented with 10% fetal bovine serum, 1% Pen-Strep and 1% L-glutamine). […] PBMCs were added at a density of 7.5×10^4 cells per well and incubated for 30 min in a 5% CO2 incubator at 37° C. LPS stimulation was performed by addition of 100 ng/ml LPS (final concentration, Invivogen, tlrl-smlps) for 6 hrs followed by collection of cellular supernatant and the analysis of IL-1β […] and TNF cytokines levels […] via MSD technology according to manufacturers' guidelines (MSD, K15A0H).

[2] = tested on: TNF; test: PBMC assay: TNF cytokine levels in supernatant of LPS-stimulated human PBMCs (MSD); assay type: cell-based; conditions: 30 min compound pre-incubation, 100 ng/ml LPS for 6 hrs
Description: Peripheral venous blood was collected from healthy individuals and human peripheral blood mononuclear cells (PBMCs) were isolated from blood by Ficoll-Histopaque (Sigma-Aldrich, A0561) density gradient centrifugation. After isolation, PBMCs were stored in liquid nitrogen for later use. Upon thawing, PBMC cell viability was determined in growth medium (RPMI media supplemented with 10% fetal bovine serum, 1% Pen-Strep and 1% L-glutamine). Compounds were spotted in a 1:3 serial dilution in DMSO and diluted to the final concentration in 30 μl medium in 96 well plates (Falcon, 353072). PBMCs were added at a density of 7.5×10^4 cells per well and incubated for 30 min in a 5% CO2 incubator at 37° C. LPS stimulation was performed by addition of 100 ng/ml LPS (final concentration, Invivogen, tlrl-smlps) for 6 hrs followed by collection of cellular supernatant and the analysis of IL-1β […] and TNF cytokines levels […] via MSD technology according to manufacturers' guidelines (MSD, K15A0H).
The IC50 values (for IL-1β) and EC50 values (TNF) were obtained on compounds of the invention/examples, and are depicted in the following table: […]

T1 sequence (Q96P20 whole entry): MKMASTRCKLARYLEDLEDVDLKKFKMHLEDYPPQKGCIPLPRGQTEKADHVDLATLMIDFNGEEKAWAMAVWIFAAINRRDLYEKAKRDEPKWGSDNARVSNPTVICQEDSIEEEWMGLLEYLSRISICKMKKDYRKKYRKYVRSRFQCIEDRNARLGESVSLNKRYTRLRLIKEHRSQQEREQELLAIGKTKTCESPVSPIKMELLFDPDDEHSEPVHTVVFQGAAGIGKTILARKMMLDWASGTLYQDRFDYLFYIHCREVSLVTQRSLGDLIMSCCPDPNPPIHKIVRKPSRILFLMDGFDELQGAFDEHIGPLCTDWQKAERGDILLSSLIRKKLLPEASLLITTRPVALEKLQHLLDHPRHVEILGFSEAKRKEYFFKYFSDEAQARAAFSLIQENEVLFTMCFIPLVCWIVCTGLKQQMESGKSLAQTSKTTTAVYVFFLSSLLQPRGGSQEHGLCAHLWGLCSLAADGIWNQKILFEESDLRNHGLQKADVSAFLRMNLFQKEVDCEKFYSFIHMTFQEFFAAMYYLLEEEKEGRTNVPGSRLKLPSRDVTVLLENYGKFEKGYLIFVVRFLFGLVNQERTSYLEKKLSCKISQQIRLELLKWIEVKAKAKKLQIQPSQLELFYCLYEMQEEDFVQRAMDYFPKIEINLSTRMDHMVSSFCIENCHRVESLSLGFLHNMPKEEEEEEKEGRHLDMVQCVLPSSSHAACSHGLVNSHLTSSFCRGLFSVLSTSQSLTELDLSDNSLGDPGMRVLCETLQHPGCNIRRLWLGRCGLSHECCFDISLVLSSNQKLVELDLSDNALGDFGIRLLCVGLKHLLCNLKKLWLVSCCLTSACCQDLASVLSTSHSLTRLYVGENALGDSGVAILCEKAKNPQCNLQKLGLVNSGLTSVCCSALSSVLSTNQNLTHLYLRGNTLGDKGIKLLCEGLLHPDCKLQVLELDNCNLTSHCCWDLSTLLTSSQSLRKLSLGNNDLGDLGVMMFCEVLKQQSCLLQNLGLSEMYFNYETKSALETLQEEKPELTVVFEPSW

SMILES: CC(C)c1nn(CC(=O)Nc2ccc3c(c2)[nH]c(=O)n3C)c(=O)c2sc(C3CC3)nc12 [F-15]
IC50 [1]: 0.026 µM | EC50 ([2]; Homo sapiens, PBMC): 7.9 µM

SMILES: CC(C)c1nn(CC(=O)Nc2ccc3nncn3c2)c(=O)c2sc(C(C)(F)F)nc12 [F-23]
IC50 [1]: 0.089 µM | EC50 ([2]; Homo sapiens, PBMC): > 20 µM

SMILES: CC(C)c1nc2c(C(C)C)nn(CC(=O)Nc3ccncn3)c(=O)c2s1 [F-2]
IC50 [1]: 0.105 µM | EC50 ([2]; Homo sapiens, PBMC): 5.59 µM

SMILES: CC(C)c1nn(CC(=O)Nc2ccc3nncn3c2)c(=O)c2sc(C3CC3)nc12 [F-12]
IC50 [1]: 0.023 µM | EC50 ([2]; Homo sapiens, PBMC): 4.99 µM

SMILES: CC(C)c1nc2c(N(C)C)nn(CC(=O)Nc3ccc4nncn4c3)c(=O)c2s1 [F-7]
IC50 [1]: 0.169 µM | EC50 ([2]; Homo sapiens, PBMC): > 20 µM

SMILES: CC(C)c1nn(CC(=O)Nc2ccc3nncn3c2)c(=O)c2sc(C3CC3(F)F)nc12 (stereo not drawn) [F-20]
IC50 [1]: 0.1 µM | EC50 ([2]; Homo sapiens, PBMC): > 20 µM

SMILES: CC(C)c1nc2c(N(C)C)nn(CC(=O)N[C@H]3C[C@@](C)(O)C3)c(=O)c2s1 [F-6]
IC50 [1]: 0.258 µM | EC50 ([2]; Homo sapiens, PBMC): > 20 µM

SMILES: CC(C)c1nn(CC(=O)Nc2ccncn2)c(=O)c2sc(C3CC3)nc12 [F-1, 2-(2-cyclopropyl-4-isopropyl-7-oxo-thiazolo[4,5-d]pyridazin-6-yl)-N-pyrimidin-4-yl-acetamide]
IC50 [1]: 0.105 µM | EC50 ([2]; Homo sapiens, PBMC): 19.7 µM

SMILES: CC(C)c1nc2c(C(C)C)nn(CC(=O)Nc3ccc4nncn4c3)c(=O)c2s1 [F-4]
IC50 [1]: 0.05 µM | EC50 ([2]; Homo sapiens, PBMC): 11.5 µM

SMILES: CC(C)c1nn(CC(=O)Nc2ccn3cnnc3c2)c(=O)c2sc(C3CC3)nc12 [F-17]
melting point: 206 °C | EC50 ([2]; Homo sapiens, PBMC): 12.5 µM

SMILES: CC(C)c1nc2c(C(C)C)nn(CC(=O)N[C@H]3C[C@@](C)(O)C3)c(=O)c2s1 [F-5]
IC50 [1]: 0.156 µM | EC50 ([2]; Homo sapiens, PBMC): > 20 µM

SMILES: CC(C)c1nc2c(C(C)C)nn(CC(=O)Nc3ccnnc3)c(=O)c2s1 [F-3]
IC50 [1]: 0.181 µM | EC50 ([2]; Homo sapiens, PBMC): 7.18 µM

The next lines start with the values.

IC50 [1]: 6.6 µM | EC50 ([2]; Homo sapiens, PBMC): > 20 µM
SMILES: Cc1nnc2n1C[C@H](NC(=O)Cn1nc(C(C)C)c3nc(C4CC4)sc3c1=O)CC2 (single isomer, unassigned) [F-32]

IC50 [1]: 0.224 µM | EC50 ([2]; Homo sapiens, PBMC): 19.8 µM
SMILES: CC(C)c1nn(CC(=O)Nc2ccc3nc(C(F)(F)F)cn3c2)c(=O)c2sc(C3CC3)nc12 [F-58]

IC50 [1]: 2.31 µM | EC50 ([2]; Homo sapiens, PBMC): > 20 µM
SMILES: CC(C)c1nn(CC(=O)Nc2cnc3ccnn3c2)c(=O)c2sc(C3CC3)nc12 [F-44]

IC50 [1]: 0.286 µM | EC50 ([2]; Homo sapiens, PBMC): > 20 µM
SMILES: CC(C)c1nn(CC(=O)Nc2ccc3nnc(Cl)n3n2)c(=O)c2sc(C3CC3)nc12 [F-51]

IC50 [1]: 0.407 µM | EC50 ([2]; Homo sapiens, PBMC): > 20 µM
SMILES: Cc1nnc2n1CC(NC(=O)Cn1nc(C(C)C)c3nc(C4CC4)sc3c1=O)CC2 (stereo not drawn) [F-31]

melting point: 299.1 °C | EC50 [2]: > 20 µM
SMILES: CC(C)c1nn(CC(=O)Nc2ccn3cnnc3c2)c(=O)c2sc(C3CC3)nc12 [F-40]

IC50 [1]: 0.188 µM | EC50 ([2]; Homo sapiens, PBMC): > 20 µM
SMILES: CC(C)c1nn(CC(=O)Nc2ccc3nc(C#N)cn3c2)c(=O)c2sc(C3CC3)nc12 [F-42]

IC50 [1]: 0.056 µM | EC50 ([2]; Homo sapiens, PBMC): 18.6 µM
SMILES: CC(C)c1nn(CC(=O)Nc2ccc3nncn3n2)c(=O)c2sc(C(C)(F)F)nc12 [F-52, N-([1,2,4]triazolo[4,3-b]pyridazin-6-yl)-2-(2-(1,1-difluoroethyl)-4-isopropyl-7-oxothiazolo[4,5-d]pyridazin-6(7H)-yl)acetamide]

IC50 [1]: 0.072 µM | EC50 ([2]; Homo sapiens, PBMC): 15.9 µM
SMILES: CC(C)c1nn(CC(=O)Nc2ccc3nccn3c2)c(=O)c2sc(C3CC3)nc12 [F-36]

IC50 [1]: 0.3 µM | EC50 ([2]; Homo sapiens, PBMC): > 20 µM
SMILES: Cc1nnc2n1C[C@@H](NC(=O)Cn1nc(C(C)C)c3nc(C4CC4)sc3c1=O)CC2 (single isomer, unassigned) [F-33]

IC50 [1]: 0.316 µM | EC50 ([2]; Homo sapiens, PBMC): > 20 µM
SMILES: CC(C)c1nn(CC(=O)Nc2cc(C#N)c3nncn3c2)c(=O)c2sc(C3CC3)nc12 [F-60, N-(8-cyano-[1,2,4]triazolo[4,3-a]pyridin-6-yl)-2-(2-cyclopropyl-4-isopropyl-7-oxothiazolo[4,5-d]pyridazin-6(7H)-yl)acetamide]

IC50 [1]: 1.24 µM | EC50 ([2]; Homo sapiens, PBMC): ~19.6 µM
SMILES: CC(C)c1nn(CC(=O)Nc2ccn3c(F)cnc3c2)c(=O)c2sc(C3CC3)nc12 [F-47]
